Tested on: gray mold fungus (Botrytis cinerea)
Assay: Cucumber leaf disk preventive test against gray mold fungus
Assay type: in vivo
Details: 15° C., six days
Method: True leaf of cucumber was punched out with cork borer to 13 mm in diameter to prepare a leaf disk. In 24 well microwell plate that was dispensed with 1 ml 0.8% water agar, the leaf disk was placed such that the upper side of the leaf was in an upward direction. […] Control where 20 micro liter ion-exchange water was spread was prepared (for non-treated group). After confirming that the spray solution was dried, conidium of gray mold fungus (Botrytis cinerea) was suspended into potato dextrose broth (DIFCO) in a density, of about 10^5 conidia/mL and was then subjected to a spray inoculation. After leaving to stand the leaf disk in a growth chamber set up at 15° C. for six days, an onset area on each leaf was measured and a preventive value was then calculated by the following equation 1.
The same above operations were carried out using spinetoram or spinosad instead of abamectin, so as to obtain the respective preventive values. Preventive value(%)=100×(A−B)/A (Equation 1)
A: an onset area rate of plant belonging to non-treated group
B: an onset area rate of plant belonging to treated group onset area rate=(onset area of the leaf disk)/(the total area of the leaf disk)
The same above operations as described in Test Examples 1 to 6 were carried out using emamectin-benzoate, lepimectin or milbemectin instead of abamectin, so as to obtain the respective preventive values. […]

CNC(=O)C(OC)c1ccccc1COc1cc(C)ccc1C (centres unmarked) [the present amide compound]
preventive value (%) (the present amide compound alone 1.0 ppm (dimethyl sulfoxide solution)): 46% | preventive value (%) (the present amide compound alone 2.5 ppm (dimethyl sulfoxide solution)): 56%
